From article PMC3744326 (Synapse (New York, N.Y.), 2013)

Biological target: T1, serotonin 5-HT1A receptor (Rattus norvegicus, UniProt P19327)
T1 sequence (P19327 1-422): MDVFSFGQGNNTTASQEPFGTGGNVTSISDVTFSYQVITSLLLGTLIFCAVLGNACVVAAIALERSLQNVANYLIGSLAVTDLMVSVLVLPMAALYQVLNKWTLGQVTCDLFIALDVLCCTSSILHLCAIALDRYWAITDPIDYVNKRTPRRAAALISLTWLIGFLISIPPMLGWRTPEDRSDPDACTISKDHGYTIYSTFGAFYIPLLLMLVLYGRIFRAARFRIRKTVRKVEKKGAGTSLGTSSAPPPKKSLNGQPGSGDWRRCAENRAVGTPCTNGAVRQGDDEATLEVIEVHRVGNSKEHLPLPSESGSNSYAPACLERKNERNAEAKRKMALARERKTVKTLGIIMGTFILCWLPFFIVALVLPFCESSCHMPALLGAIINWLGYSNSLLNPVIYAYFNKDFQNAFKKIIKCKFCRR
Test: [3H]WAY-100635 radioligand displacement in rat brain homogenates
Assay type: binding

## COc1ccccc1N1CCN(CCN(c2ccccn2)C(=O)[C@H]2CC[C@H](CF)CC2)CC1 [trans-mefway, N-{2-[4-(2'-methoxyphenyl)piperazinyl]ethyl}-N-(2-pyridyl)-N-(cis/trans-4'-[^18F]fluoromethylcyclohexane)-carboxamide]
  Ki: 0.84 nM
